Values quoted from earlier work, collected in patent US10238615B2 (Bracco S.P.A., priority 2011, dated 2019).

N[C@@H](Cc1cc(I)c(Oc2ccc(O)c(I)c2)c(I)c1)C(=O)O [Example T3, 3,5,3′-triiodothyronine]
Serum levels of thyreotropic hormone (TSH) (euthyroid rats): significant reduction
Plasma level of total T3 obtained by standard therapy (20 μg T3): 196.6 ng/dL
Time of peak level in serum (synthetic T3 once administered): 2 to 3 h
Time to complete clearance from blood (synthetic T3 once administered): 12 to 24 h
